{"source": "paper PMC2581804", "about": "“Mycobacterium tuberculosis Glucosyl-3-Phosphoglycerate Synthase: Structure of a Key Enzyme in Methylglucose Lipopolysaccharide Biosynthesis” (PLoS ONE, 2008)", "biological_target": "M. tuberculosis GpgS (glucosyl-3-phosphoglycerate synthase) (Mycobacterium tuberculosis, UniProt P9WMW9)", "sequence (P9WMW9 whole entry)": "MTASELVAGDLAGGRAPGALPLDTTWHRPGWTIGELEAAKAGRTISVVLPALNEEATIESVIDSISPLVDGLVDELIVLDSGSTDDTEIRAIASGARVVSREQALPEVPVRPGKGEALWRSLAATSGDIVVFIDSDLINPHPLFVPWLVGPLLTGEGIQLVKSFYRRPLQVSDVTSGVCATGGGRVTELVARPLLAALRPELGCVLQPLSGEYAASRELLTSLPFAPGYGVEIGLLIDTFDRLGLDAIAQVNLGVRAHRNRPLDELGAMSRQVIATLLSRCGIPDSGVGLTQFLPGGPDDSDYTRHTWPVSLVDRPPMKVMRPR", "data": [{"compound": "O=C(O)[C@H](O)COP(=O)(O)O", "note": "[3-phosphoglycerate]", "values": [{"measurement": "X-ray crystal structure of ternary complex, 2.7 A (co-crystallization)", "value": "there is clear electron density for the carboxylate region of the bound 3-phosphoglycerate"}]}]}
